Data taken from US6362171B1, “Aminoaklanoyl-linked conjugates of 2′,5′-oligoadenylate and antiviral uses thereof” (priority 1997, dated 2002).
“And” between values parts separate entries of the source, which are not always exact repeats. Equal values may be shown once.

Columns and labels:
HIV-1 strain IIIB = assay: Infected centers assay: inhibition of HIV-1 induced syncytia formation (HIV-1 replication); assay type: cell-based; settings: 300 μM compound; PBL treated 2 hours, infected with HIV-1 IIIB, co-cultured with Sup T1 cells, read at 72 hours; control 144 syncytia/10^4 cells; mean of triplicate
Protocol: The infected centers assay as described by Henderson et al., Virology 1991, 182, 186, was used to measure the ability of the conjugated trimer core compounds of the invention to inhibit HIV-1 induced syncytia formation, an indicator of HIV-1 replication in T cells. […] The infected PBL were maintained in RPMI-1640 medium supplemented with 10% (v/v) heat-inactivated fetal calf serum at 37° C. in a humidified 5% CO2 in air atmosphere. After 48 hours, the cells were washed twice in Hank's balanced salt solution, serially diluted and seeded into multiple wells of a 96-well microtiter plate. Immediately, 2×10^5 exponentially growing Sup T1 cells were added to each well; Sup T1 cells readily form a syncytium with a cell which is productively infected with HIV-1. The wells were examined daily for the presence of syncytia, using a tissue culture microscope. The first signs of syncytia formation can be seen in 12 hours, with some complete syncytia developing by 24 hours. Final results were read at 72 hours. Each syncytium was counted as a single infected cell. The number of syncytia per seeded cell was determined and expressed as an infected center per infected cell. The number of syncytia per […] was 144 for the control Sup T1 cells.

[1] = target: T1, HIV-1 reverse transcriptase (HIV-1 RT) (Human immunodeficiency virus type 1 group M subtype B, UniProt P04585); assay: Inhibition of HIV-1 reverse-transcriptase activity in culture supernatant of infected Sup T1 cells; assay type: cell-based; settings: for Inhibition of HIV-1 RT activity: 300 μM compound, Sup T1 cells treated 6 hours, supernatant at 96 hours post-infection, mean of duplicate
T1 construct: culture supernatant was removed and HIV-1 RT activity was assayed in triplicate; endogenous in cells; host or cells: Sup T1 cells infected with HIV-1; virion-associated enzyme in the culture supernatant

[2] = target: recombinant human GST-RNase L (Homo sapiens, UniProt Q05823); settings: 10 μM compound; mean of duplicate
HIV-1 = settings: literature ref [11]; cited from earlier work
RNase L = target: T2, RNase L (Homo sapiens, UniProt Q05823); settings: literature ref [10]; cited from earlier work
T2 sequence (Q05823 1-741): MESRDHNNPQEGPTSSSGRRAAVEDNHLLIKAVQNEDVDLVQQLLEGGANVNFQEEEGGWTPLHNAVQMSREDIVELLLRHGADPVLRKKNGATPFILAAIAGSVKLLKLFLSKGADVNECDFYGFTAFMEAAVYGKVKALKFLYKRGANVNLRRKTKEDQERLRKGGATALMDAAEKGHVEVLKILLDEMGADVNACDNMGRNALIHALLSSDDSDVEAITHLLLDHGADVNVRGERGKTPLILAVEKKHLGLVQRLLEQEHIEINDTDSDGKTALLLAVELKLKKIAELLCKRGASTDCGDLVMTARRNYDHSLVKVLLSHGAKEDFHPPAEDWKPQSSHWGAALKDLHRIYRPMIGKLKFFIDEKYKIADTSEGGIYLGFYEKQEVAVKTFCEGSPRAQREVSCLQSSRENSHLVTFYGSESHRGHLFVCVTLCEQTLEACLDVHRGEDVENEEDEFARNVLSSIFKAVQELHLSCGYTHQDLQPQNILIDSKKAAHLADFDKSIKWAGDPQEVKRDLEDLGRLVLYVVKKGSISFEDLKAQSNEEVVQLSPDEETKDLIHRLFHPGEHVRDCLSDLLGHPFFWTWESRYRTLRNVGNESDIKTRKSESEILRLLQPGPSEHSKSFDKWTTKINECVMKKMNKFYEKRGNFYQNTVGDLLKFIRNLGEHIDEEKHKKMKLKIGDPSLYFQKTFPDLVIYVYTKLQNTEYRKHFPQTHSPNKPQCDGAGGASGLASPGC

Compound | Inhibition of syncytia formation (fold reduction in infection) (HIV-1 strain IIIB) | inhibition at 300 µM ([1]; SUP-T1, read-out: Inhibition of HIV-1 RT activity) [%] | Inhibition of HIV-1 RT activity [1] [%] | Activation of RNase L (percent hydrolysis of poly(U)-3′-[32P]pCp) [2] [%] | HIV-1 production (HIV-1) | Activation of RNase L (RNase L)
Nc1ncnc2c1ncn2[C@@H]1O[C@H](CO)C[C@H]1O [Cordycepin] | 1.5 fold | 13 |  |  |  | 
Nc1nc2ncc(CNc3ccc(C(=O)N[C@@H](CCC(=O)NCCCCCC(=O)O[C@@H]4C[C@@H](COP(=O)(O)O[C@@H]5C[C@@H](COP(=O)(O)O[C@@H]6C[C@@H](CO)O[C@H]6n6cnc7c(N)ncnc76)O[C@H]5n5cnc6c(N)ncnc65)O[C@H]4n4cnc5c(N)ncnc54)C(=O)O)cc3)nc2c(=O)[nH]1 [compound 26] | 2.4 fold |  | 45 |  |  | 
Nc1nc2ncc(CNc3ccc(C(=O)N[C@@H](CCC(=O)NCCCCCC(=O)OC[C@H]4O[C@@H](n5cnc6c(N)ncnc65)[C@H](OP(=O)(O)OC[C@@H]5C[C@@H](OP(=O)(O)OC[C@@H]6C[C@@H](O)[C@H](n7cnc8c(N)ncnc87)O6)[C@H](n6cnc7c(N)ncnc76)O5)[C@@H]4O)C(=O)O)cc3)nc2c(=O)[nH]1 [compound 33] | 7.5 fold and 7.2 fold |  | 81 | 35 |  | 
(2′-5′)d^3′(A-A-A) [CCC] | 4.8 fold |  | 96 | 12 | inhibits HIV-1 production | no activation
